Results from patent US20200087284A1, “[4-(PHENYLSULFONYL)PIPERAZIN-1-YL](1H-1, 2, 3-TRIAZOL-4-YL)METHANONES” (priority 2016, published 2020).

target: T1, recombinant human AKR1C3 (Homo sapiens, UniProt P42330); experiment: AKR1C3-inhibitory activity assay (Coumberone to Coumberol fluorescence); format: biochemical; conditions: recombinant human AKR1C3, 10 μM NADPH, 0.3 μM Coumberone, 22° C., typically 90 min
T1 construct: GST (cleaved yes); made in house; host or cells: E. coli
T1 sequence (P42330 1-323): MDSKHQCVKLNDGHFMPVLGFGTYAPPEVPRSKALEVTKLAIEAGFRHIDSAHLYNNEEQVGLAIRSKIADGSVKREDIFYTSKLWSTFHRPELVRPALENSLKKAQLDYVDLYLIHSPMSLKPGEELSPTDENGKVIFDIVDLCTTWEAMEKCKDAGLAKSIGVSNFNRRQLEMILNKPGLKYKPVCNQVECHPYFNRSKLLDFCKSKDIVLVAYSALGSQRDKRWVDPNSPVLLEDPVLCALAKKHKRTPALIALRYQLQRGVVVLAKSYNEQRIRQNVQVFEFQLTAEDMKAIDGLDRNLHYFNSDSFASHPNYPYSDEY
Protocol: AKR1C3-Inhibitory Activity Assay
The AKR1C3-inhibitory activity of the substances of the present invention was measured in the AKR1C3 assay described in the paragraphs below.
Essentially, the enzyme activity is measured by quantification of the generation of Coumberol from Coumberone (Halim et al. J. AM. CHEM. SOC. 2008, 130:14123-14128 and Yee et al. Proc. Natl. Acad. Sci. USA 2006, 103:13304-13309). In this test, the increase of the highly fluorescent Coumberol by NADPH- (nicotinamide adenine dinucleotide phosphate)-dependent reduction of the non-fluorescent Coumberone by AKR1C3 was determined.
The enzyme used was recombinant human AKR1C3 (Aldo-keto reductase family 1 member C3; GenBank Accession No. NM_003739). This was expressed in E. coli as GST (glutathione S transferase) fusion protein and purified by glutathione Sepharose affinity chromatography. The GST was removed by digestion with thrombin and subsequent size exclusion chromatography (Dufort, I., Rheault, P., Huang, X F., Soucy, P., and Luu-The, V., Endocrinology 140, 568-574 (1999)).
For the assay, 50 nI of a 100-fold concentrated solution of the test substance in DMSO were pipetted into a black low-volume 384-well microtiter plate (Greiner Bio-One, Frickenhausen, Germany), 2.5 μl of a solution of AKR1C3 in assay buffer [50 mM potassium phosphate buffer pH 7, 1 mM DTT, 0.0022% (w/v) Pluronic F-127, 0.01% BSA (w/v) and protease inhibitor cocktail (Complete, EDTA-free Protease Inhibitor Cocktail from Roche)] were added and the mixture was incubated for 15 min to allow pre-binding of the substances to the enzyme prior to the enzyme reaction. The enzyme reaction was then started by addition of 2.5 μl of a solution of NADPH (20 μM→final concentration in 5 μl of assay volume is 10 μM) and Coumberone (0.6 μM→final concentration in 5 μl of assay volume is 0.3 μM) in assay buffer, and the resulting mixture was incubated at 22° C. for the reaction time of typically 90 min. The concentration of the AKR1C3 and the reaction time was adapted to the respective activity of the enzyme preparation and adjusted such that the assay was carried out in the linear range. Typical AKR1C3 concentrations were in the region of 1 nM. The reaction was stopped by addition of 2.5 μl of a stop solution consisting of 3 μM EM-1404 as inhibitor (U.S. Pat. No. 6,541,463) in 50 mM HEPES pH7.5 (3 μM EM-1404→final concentration in 7.5 μl of assay volume is 1 μM). The fluorescence of the Coumberole was then measured at 520 nm (excitation at 380 nm) using a suitable measuring instrument (Pherastar from BMG Labtechnologies). The intensity of the fluorescence was used as a measure of the amount of Coumberole formed and thus of the enzyme activity of AKR1C3. The data were normalized (enzyme reaction without inhibitor=0% inhibition; all other assay components, but no enzyme=100% inhibition).

Structure (SMILES) | IC50 [µM]
C[C@@H]1CN(S(=O)(=O)c2ccc(F)cc2F)C[C@H](C)N1C(=O)c1c[nH]nn1 [Example 4, {(2R,6S)-4-[(2,4-difluorophenyl)sulfonyl]-2,6-dimethylpiperazin-1-yl}(1H-1,2,3-triazol-4-yl)methanone] | 0.012
CCc1ccc(S(=O)(=O)N2CCN(C(=O)c3cnn[nH]3)CC2(C)C)cc1 [Example 7, {4-[(4-ethylphenyl)sulfonyl]-3,3-dimethylpiperazin-1-yl}(1H-1,2,3-triazol-5-yl)methanone] | 0.008
CC1(C)CN(C(=O)c2cnn[nH]2)CCN1S(=O)(=O)c1ccc(F)cc1F [Example 8, {4-[(2,4-difluorophenyl)sulfonyl]-3,3-dimethylpiperazin-1-yl}(1H-1,2,3-triazol-5-yl)methanone] | 0.045
C[C@@H]1CN(S(=O)(=O)c2ccc(C(F)(F)F)cc2)C[C@H](C)N1C(=O)c1c[nH]nn1 [Example 5, [(2R,6S)-2,6-dimethyl-4-{[4-(trifluoromethyl)phenyl]sulfonyl}piperazin-1-yl](1H-1,2,3-triazol-4-yl)methanone] | 0.107
CC1(C)CN(C(=O)c2cnn[nH]2)CCN1S(=O)(=O)c1ccc(F)cc1Cl [Example 9, {4-[(2-chloro-4-fluorophenyl)sulfonyl]-3,3-dimethylpiperazin-1-yl}(1H-1,2,3-triazol-5-yl)methanone] | 0.011
Cc1ccc(S(=O)(=O)N2C[C@@H](C)N(C(=O)c3c[nH]nn3)[C@@H](C)C2)cc1 [Example 3, {(2R,6S)-2,6-dimethyl-4-[(4-methylphenyl)sulfonyl]piperazin-1-yl}(1H-1,2,3-triazol-4-yl)methanone] | 0.024

Now from value to compound:

IC50 [µM] | Structure (SMILES)
0.003 | C[C@@H]1CN(C(=O)c2cnn[nH]2)[C@@H](C)CN1S(=O)(=O)c1ccc(F)cc1F [Example 2, {(2S,5R)-4-[(2,4-difluorophenyl)sulfonyl]-2,5-dimethylpiperazin-1-yl}(1H-1,2,3-triazol-5-yl)methanone]
0.006 | Cc1ccc(S(=O)(=O)N2C[C@H](C)N(C(=O)c3cnn[nH]3)C[C@H]2C)cc1 [Example 1, {(2S,5R)-2,5-dimethyl-4-[(4-methylphenyl)sulfonyl]piperazin-1-yl}(1H-1,2,3-triazol-5-yl)methanone]
0.008 | Cc1ccc(S(=O)(=O)N2CCN(C(=O)c3cnn[nH]3)CC2(C)C)cc1 [Example 6, {3,3-dimethyl-4-[(4-methylphenyl)sulfonyl]piperazin-1-yl}(1H-1,2,3-triazol-5-yl)methanone]
